Experiment [1] concerns hepatobiliary transit (liver, gall bladder and gastro-intestinal tract). Nature of the experiment: Visualization of hepatobiliary transit, sequential scintillation camera images after intravenous injection. The class given is in vivo, rabbit (male New Zealand Albino). The following applies: rabbit, >1 mCi (Disofenin: at least 1 mCi). The procedure: A lyophylized vial of HEPATOLITE™ (New England Nuclear Corporation's brand of Technetium Tc99m Disofenin) is labelled with ^99m Tc-pertechnetate in accordance with manufacturer's directions. At least 1 mCi of the labelled preparation is injected intravenously into a 2.5 Kg male New Zealand Albino rabbit. The rabbit is positioned under a Searle Pho-Gamma scintallation camera in such a way that the liver and gastro-intestinal tract are within the field of view.
Greater than 1 mCi of the ^99m Tc-Thiocyanato-DMPE complex from either Example 1 or 2 is injected into a rabbit as in Example 3.

A further experiment relates to hepatobiliary transit. The conditions noted are these: commercially available agent, species not stated; cited from earlier work.

Regarding `CC(C)c1cccc(C(C)C)c1NC(=O)CN(CC(=O)O)CC(=O)O.[99Tc]` [Disofenin, Technetium Tc99m Disofenin, reference compound], in experiment [1], the “sequential images of hepatobiliary transit, passage and image quality” value is “initial liver uptake with gradual visualization of the gall bladder and gastro-intestinal tract, analogous to the diagnostically efficacious results obtained in clinical studies of normal healthy humans”; the “time to sequential images of hepatobiliary transit (liver, gall bladder and gastro-intestinal tract)” value is recorded as “about 30 minutes”. For the same compound, the “time to obtain an image of the hepatobiliary transit” value in the experiment with hepatobiliary transit was no more than 30 min.

As for “^99m Tc-Thiocyanato - DMPE Complex [Example 2]”, in experiment [1], the “sequential images of hepatobiliary transit, passage and image quality” value was “rapid passage and comparable image quality of the liver, gall bladder and gastro-intestinal tract”; the “time to sequential images of hepatobiliary transit (liver, gall bladder and gastro-intestinal tract)” value was “about 10 minutes”.

The values are drawn from US4526776A, “Cationic cyanato and thiocyanato complexes useful as radiodiagnostic agents” (E. I. du Pont de Nemours & Company, priority 1983, dated 1985).
